Drawing on ChEMBL document CHEMBL5665443, “Enzyme Inhibitor Single Concentration assay results for EUbOPEN Chemogenomics Library” (2024), this text covers inhibition for nine compounds.

Assay [1] concerns the target DNA-3-methyladenine glycosylase (Homo sapiens) (UniProt P29372). Particulars: Compound Concentration 10.0 uM, Hit No.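 Also: enzyme assay where MPG cuts a quenched duplex DNA oligonucleotide probe, paired with APE1 for strand incision and turnover, read as fluorescence at 594 nm.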
Description: Inhibition of MPG by quantifying inhibition of MPG-mediated cleavage and dissociation of quenched duplex DNA oligonucleotides, measured as fluorescence at 594 nm. To generate a functional strand incision and increase turn-over this assay is coupled to APE1.
In assay [2] the target is Endonuclease 8-like 1 (Homo sapiens) (UniProt Q96FI4). The settings on record: Hit No.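 Also: fluorescence at 594 nm from quenched duplex DNA oligonucleotides released by NEIL1 cleavage and strand separation, reported as reduction of this enzyme activity.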
Description: Inhibition of NEIL1 by quantifying inhibition of NEIL1-mediated cleavage and dissociation of quenched duplex DNA oligonucleotides, measured as fluorescence at 594 nm.
The target of assay [3] is T1, Endonuclease 8-like 2 (Homo sapiens) (UniProt Q969S2).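 Also: fluorescence at 594 nm reports NEIL2 cutting and release of a quenched double-stranded DNA oligo substrate, reduced signal read as inhibition.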
T1 sequence (whole entry): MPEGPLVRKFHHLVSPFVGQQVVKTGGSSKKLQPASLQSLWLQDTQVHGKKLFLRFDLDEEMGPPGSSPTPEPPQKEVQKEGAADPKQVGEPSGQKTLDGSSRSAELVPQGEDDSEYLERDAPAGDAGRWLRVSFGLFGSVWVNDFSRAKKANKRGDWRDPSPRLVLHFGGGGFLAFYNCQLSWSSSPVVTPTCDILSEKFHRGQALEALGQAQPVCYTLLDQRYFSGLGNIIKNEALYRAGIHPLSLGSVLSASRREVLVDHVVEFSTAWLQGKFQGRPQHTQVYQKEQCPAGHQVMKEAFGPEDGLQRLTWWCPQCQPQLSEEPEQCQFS
The settings on record: Compound Concentration 10.0 uM, Hit No.
Description: Inhibition of NEIL2 by quantifying inhibition of NEIL2-mediated cleavage and dissociation of quenched duplex DNA oligonucleotides, measured as fluorescence at 594 nm.

The target in assay [4] is T2, Single-strand selective monofunctional uracil DNA glycosylase (Homo sapiens) (UniProt Q53HV7).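 Also: enzymatic SMUG1 assay coupled with APE1, reading fluorescence at 594 nm released when a quenched double-stranded DNA oligonucleotide substrate is cleaved and separated.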
T2 sequence (whole entry): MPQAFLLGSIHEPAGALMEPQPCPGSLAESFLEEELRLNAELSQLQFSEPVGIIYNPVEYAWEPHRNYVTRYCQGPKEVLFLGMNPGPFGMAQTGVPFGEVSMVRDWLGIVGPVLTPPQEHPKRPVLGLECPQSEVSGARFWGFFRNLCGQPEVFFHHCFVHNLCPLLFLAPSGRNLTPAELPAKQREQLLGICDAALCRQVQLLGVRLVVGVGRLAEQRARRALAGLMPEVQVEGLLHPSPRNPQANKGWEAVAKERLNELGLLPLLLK
The settings on record: Hit No.
Description: Inhibition of SMUG1 by quantifying inhibition of SMUG1-mediated cleavage and dissociation of quenched duplex DNA oligonucleotides, measured as fluorescence at 594 nm. To generate a functional strand incision and increase turn-over this assay is coupled to APE1.

Assay [5] deals with G/T mismatch-specific thymine DNA glycosylase (Homo sapiens) (UniProt Q13569). The settings on record: Hit No.
Description: Inhibition of TDG by quantifying inhibition of TDG-mediated cleavage and dissociation of quenched duplex DNA oligonucleotides, measured as fluorescence at 594 nm. To generate a functional strand incision and increase turn-over this assay is coupled to APE1.
Assay [6] has as its target Uracil-DNA glycosylase (Homo sapiens) (UniProt P13051). Particulars: Hit No.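 Also: UNG excision on a quenched double-stranded DNA oligo probe, with APE1 added for strand incision and turnover, read as fluorescence at 594 nm as strands separate.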
Description: Inhibition of UNG by quantifying inhibition of UNG-mediated cleavage and dissociation of quenched duplex DNA oligonucleotides, measured as fluorescence at 594 nm. To generate a functional strand incision and increase turn-over this assay is coupled to APE1.
In assay [7] the target is N-glycosylase/DNA lyase (Homo sapiens) (UniProt O15527). The settings on record: Compound Concentration 10.0 uM, Hit No.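 Also: OGG1 cleavage of a quenched duplex DNA oligonucleotide, coupled to APE1 for strand incision, read as fluorescence at 594 nm.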
Description: Inhibition of OGG1 by quantifying inhibition of OGG1-mediated cleavage and dissociation of quenched duplex DNA oligonucleotides, measured as fluorescence at 594 nm. To generate a functional strand incision and increase turn-over this assay is coupled to APE1.
In assay [8] the target is Methyl-CpG-binding domain protein 4 (Homo sapiens) (UniProt O95243). The settings on record: Compound Concentration 10.0 uM, Hit No.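 Also: MBD4 activity read as fluorescence at 594 nm from cleavage and release of a quenched duplex DNA oligonucleotide, with APE1 coupled to incise the strand and raise turnover.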
Description: Inhibition of MBD4 by quantifying inhibition of MBD4-mediated cleavage and dissociation of quenched duplex DNA oligonucleotides, measured as fluorescence at 594 nm. To generate a functional strand incision and increase turn-over this assay is coupled to APE1.
Assay [9] deals with T3, Adenine DNA glycosylase (Homo sapiens) (UniProt Q9UIF7).
T3 sequence (whole entry): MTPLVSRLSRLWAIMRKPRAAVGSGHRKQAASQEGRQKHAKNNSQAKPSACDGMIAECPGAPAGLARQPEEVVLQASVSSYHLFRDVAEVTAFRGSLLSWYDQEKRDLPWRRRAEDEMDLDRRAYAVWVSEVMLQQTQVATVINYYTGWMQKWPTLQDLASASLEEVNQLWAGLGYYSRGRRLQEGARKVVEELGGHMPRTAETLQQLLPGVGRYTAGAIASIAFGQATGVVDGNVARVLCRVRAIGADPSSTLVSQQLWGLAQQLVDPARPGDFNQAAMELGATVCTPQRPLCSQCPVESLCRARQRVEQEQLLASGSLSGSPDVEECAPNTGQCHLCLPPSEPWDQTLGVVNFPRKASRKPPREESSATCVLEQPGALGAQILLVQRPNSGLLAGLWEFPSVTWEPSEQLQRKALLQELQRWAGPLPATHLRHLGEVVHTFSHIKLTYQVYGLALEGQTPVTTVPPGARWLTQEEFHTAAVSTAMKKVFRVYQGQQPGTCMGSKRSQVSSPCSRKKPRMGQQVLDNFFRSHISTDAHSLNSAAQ
The settings on record: Hit No.
Description: Inhibition of MUTYH by quantifying inhibition of MUTYH-mediated cleavage and dissociation of quenched duplex DNA oligonucleotides, measured as fluorescence at 594 nm. To generate a functional strand incision and increase turn-over this assay is coupled to APE1.

In assay [10] the target is T4, Endonuclease III-like protein 1 (Homo sapiens) (UniProt P78549).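 Also: enzyme assay tracking NTHL1 cutting and release of a quenched double-stranded DNA oligo substrate, read as fluorescence at 594 nm.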
T4 sequence (whole entry): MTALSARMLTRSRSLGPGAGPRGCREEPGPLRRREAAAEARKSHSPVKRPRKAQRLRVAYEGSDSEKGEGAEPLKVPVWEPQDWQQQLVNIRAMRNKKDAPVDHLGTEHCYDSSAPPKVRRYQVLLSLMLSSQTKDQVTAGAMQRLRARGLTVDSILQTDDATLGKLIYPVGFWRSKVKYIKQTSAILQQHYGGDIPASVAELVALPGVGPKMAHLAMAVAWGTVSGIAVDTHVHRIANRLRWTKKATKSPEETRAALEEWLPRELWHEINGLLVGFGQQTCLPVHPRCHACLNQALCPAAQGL
Particulars: Hit No.
Description: Inhibition of NTHL1 by quantifying inhibition of NTHL1-mediated cleavage and dissociation of quenched duplex DNA oligonucleotides, measured as fluorescence at 594 nm.

Sequence of N-glycosylase/DNA lyase (Homo sapiens) (O15527 whole entry, the tested form may be a part): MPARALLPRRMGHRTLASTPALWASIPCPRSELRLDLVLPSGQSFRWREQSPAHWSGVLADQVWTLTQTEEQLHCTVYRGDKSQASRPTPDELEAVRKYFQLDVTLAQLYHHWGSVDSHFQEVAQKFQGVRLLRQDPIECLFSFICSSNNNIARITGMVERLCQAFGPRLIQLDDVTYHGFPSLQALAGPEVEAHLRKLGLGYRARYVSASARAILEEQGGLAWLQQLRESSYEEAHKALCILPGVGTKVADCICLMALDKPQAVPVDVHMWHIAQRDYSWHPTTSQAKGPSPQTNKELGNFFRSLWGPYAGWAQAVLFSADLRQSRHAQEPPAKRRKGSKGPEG
Sequence of Endonuclease 8-like 1 (Homo sapiens) (Q96FI4 whole entry): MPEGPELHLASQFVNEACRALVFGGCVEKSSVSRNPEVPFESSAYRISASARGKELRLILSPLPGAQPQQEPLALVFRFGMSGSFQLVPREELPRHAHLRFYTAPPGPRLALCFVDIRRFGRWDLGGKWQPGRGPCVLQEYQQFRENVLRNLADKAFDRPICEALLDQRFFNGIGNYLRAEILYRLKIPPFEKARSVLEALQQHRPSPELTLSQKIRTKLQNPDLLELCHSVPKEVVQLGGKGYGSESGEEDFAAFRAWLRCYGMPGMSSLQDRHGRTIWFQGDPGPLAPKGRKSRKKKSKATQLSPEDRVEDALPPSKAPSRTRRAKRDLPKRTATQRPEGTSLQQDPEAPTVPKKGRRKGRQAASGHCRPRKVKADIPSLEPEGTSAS
Sequence of Uracil-DNA glycosylase (Homo sapiens) (P13051 whole entry): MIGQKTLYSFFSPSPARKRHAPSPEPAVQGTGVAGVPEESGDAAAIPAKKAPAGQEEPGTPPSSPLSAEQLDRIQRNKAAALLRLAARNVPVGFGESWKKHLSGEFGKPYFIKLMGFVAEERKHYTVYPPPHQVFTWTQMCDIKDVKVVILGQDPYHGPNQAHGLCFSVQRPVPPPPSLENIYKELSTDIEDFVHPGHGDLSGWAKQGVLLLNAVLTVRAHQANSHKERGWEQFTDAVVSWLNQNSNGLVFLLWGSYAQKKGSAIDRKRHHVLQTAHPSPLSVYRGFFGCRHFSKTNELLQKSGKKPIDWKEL
Sequence of G/T mismatch-specific thymine DNA glycosylase (Homo sapiens) (Q13569 whole entry): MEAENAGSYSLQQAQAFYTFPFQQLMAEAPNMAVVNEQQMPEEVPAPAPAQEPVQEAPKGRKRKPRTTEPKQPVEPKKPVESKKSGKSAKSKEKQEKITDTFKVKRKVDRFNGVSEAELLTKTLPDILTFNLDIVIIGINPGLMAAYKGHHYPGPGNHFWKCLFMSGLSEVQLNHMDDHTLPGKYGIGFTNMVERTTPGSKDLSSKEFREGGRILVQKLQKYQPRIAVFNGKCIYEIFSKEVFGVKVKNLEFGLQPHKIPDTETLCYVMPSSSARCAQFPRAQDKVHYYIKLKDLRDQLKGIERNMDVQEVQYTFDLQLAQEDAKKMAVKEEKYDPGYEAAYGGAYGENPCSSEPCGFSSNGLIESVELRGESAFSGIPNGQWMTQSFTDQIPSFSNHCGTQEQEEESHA
Sequence of DNA-3-methyladenine glycosylase (Homo sapiens) (P29372 whole entry): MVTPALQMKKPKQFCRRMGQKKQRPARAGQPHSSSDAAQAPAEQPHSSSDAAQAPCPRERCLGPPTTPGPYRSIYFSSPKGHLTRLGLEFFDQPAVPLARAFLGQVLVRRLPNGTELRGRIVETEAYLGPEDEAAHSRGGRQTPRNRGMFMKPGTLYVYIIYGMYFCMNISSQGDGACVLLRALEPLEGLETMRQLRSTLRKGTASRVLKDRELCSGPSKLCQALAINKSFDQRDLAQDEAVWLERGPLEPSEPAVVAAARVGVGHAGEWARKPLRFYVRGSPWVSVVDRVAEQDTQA
Sequence of Methyl-CpG-binding domain protein 4 (Homo sapiens) (O95243 whole entry, the tested form may be a part): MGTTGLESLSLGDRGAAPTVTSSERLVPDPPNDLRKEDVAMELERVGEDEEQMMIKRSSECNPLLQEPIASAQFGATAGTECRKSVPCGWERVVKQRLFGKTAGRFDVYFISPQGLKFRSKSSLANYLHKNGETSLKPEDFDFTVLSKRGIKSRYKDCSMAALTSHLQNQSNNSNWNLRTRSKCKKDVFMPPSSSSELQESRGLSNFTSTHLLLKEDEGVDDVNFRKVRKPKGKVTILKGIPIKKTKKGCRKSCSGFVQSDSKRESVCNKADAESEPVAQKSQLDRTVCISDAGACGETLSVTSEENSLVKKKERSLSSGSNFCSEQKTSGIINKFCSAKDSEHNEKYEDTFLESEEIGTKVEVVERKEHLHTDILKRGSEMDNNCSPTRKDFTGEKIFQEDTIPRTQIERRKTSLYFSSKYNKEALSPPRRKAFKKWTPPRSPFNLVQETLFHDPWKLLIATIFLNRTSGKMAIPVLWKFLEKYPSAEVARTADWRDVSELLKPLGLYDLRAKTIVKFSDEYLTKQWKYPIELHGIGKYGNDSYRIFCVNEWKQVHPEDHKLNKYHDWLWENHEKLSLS

On to `CC(C)Oc1ccc(Cc2ccc(NC3=NCCN3)cc2)cc1`, for which the inhibition (usually the change of the read-out against control, counted positive when it falls) is -3.29% in assay [1]; 0.454% in [2] (Compound Concentration 10.0 uM); -6.46% in assay [3]; -1.14% in [4] (Compound Concentration 10.0 uM); 0.0736% in [5] (Compound Concentration 10.0 uM); -3.75% in assay [6] (Compound Concentration 10.0 uM).

On to `CSc1ccccc1N1CCN(CCCCCC(=O)NC2CCCc3ccccc32)CC1` (configuration not stated), for which the inhibition in assay [1] is 6.14%; in assay [2] (Compound Concentration 10.0 uM), 7.57%; in [7], -6.45%; in assay [4] (Compound Concentration 10.0 uM) it was -2.78%; in [5] (Compound Concentration 10.0 uM), 1.58%; in assay [6] (Compound Concentration 10.0 uM) it was -4.03%.

With `CC(C)c1cc(-c2ccc(F)c3ccccc23)nc(N)n1`, the inhibition in assay [1] is -4.83%; in [2] (Compound Concentration 10.0 uM), 5.58%; in assay [3], 7.25%; in [7], 2.18%; in [4] (Compound Concentration 10.0 uM), -9.82%; in [5] (Compound Concentration 10.0 uM), -7.89%.

As for `Cc1csc2c(N[C@@H](C)CN3CCN(S(=O)(=O)c4ccc(Cl)c(Cl)c4)CC3)ncnc12`, the inhibition in assay [1] is -1.59%; in [2] (Compound Concentration 10.0 uM), 0.834%; in assay [3] it was -5.22%; in assay [7], -1.28%; in assay [4] (Compound Concentration 10.0 uM), -6.62%; in [5] (Compound Concentration 10.0 uM), 16.4%.

As for `COc1ccncc1C(=O)NC(=O)Nc1ccc(-c2ccccc2)c(C(F)(F)F)c1`, the inhibition in [1] was -3.95%; in assay [3], -8.22%; in assay [7] it was -8.25%; in [5] (Compound Concentration 10.0 uM) it was -6.05%.

`O=c1ccn([C@@H]2O[C@H](COP(=O)(O)OP(=O)(O)OP(=O)(O)O)[C@@H](O)[C@H]2O)c(=O)[nH]1`: the inhibition was -2.4% in assay [1]; -1.39% in assay [2] (Compound Concentration 10.0 uM); -9.97% in assay [3]; -2.46% in assay [7]; -4.53% in assay [5] (Compound Concentration 10.0 uM).

Regarding `Cn1cc(C(=O)OCC2CCN(CCNS(C)(=O)=O)CC2)c2ccccc21`, the inhibition is 11.2% in assay [1], 1.28% in assay [2] (Compound Concentration 10.0 uM), 2.51% in assay [3] and -0.888% in [5] (Compound Concentration 10.0 uM).

Regarding `COC(=O)[C@H]1[C@H]2C[C@H]3c4[nH]c5ccccc5c4CCN3C[C@H]2CC[C@@H]1O`, the inhibition was 14.5% in assay [1]; 2.02% in [2] (Compound Concentration 10.0 uM); 9.75% in assay [3]; -6.57% in assay [7]; 5.99% in assay [5] (Compound Concentration 10.0 uM).

Regarding `CC1=C(C#N)C(c2ccc3c(c2)c(NC(=O)c2ccccc2C)nn3C)C(C#N)=C(C)N1`, the inhibition in assay [8] is 65.1%; in assay [9] (Compound Concentration 1.0 uM), -2.97%; in assay [9] (Compound Concentration 10.0 uM) it was 15.1%; in [2] (Compound Concentration 1.0 uM), 1.19%; in assay [2] (Compound Concentration 10.0 uM), -2.11%; in assay [3] it was 0.0213%. Further, the inhibition was 2.88% in [10] (Compound Concentration 1.0 uM); -3.26% in [10] (Compound Concentration 10.0 uM); 7.85% in [7]; 16.1% in assay [4] (Compound Concentration 1.0 uM); 24.1% in assay [4] (Compound Concentration 10.0 uM); 29.4% in [5] (Compound Concentration 1.0 uM). Further, the inhibition in [5] (Compound Concentration 10.0 uM) stood at 58.9%; in [6] (Compound Concentration 1.0 uM), 1.91%; in assay [6] (Compound Concentration 10.0 uM), 6.97%.
